System: Salmonella Typhimurium TA 100
Assay: Ames test for mutagenicity (plate assay, colony count)
Details: 48 hours at 37° C.; for Ames test (+)S9 0.1 mg/pl. / Ames test (+)S9 1 mg/pl. / Ames test (+)S9 10 mg/pl.: (+)S9 mix; for Ames test (−)S9 0.1 mg/pl. / Ames test (−)S9 1 mg/pl. / Ames test (−)S9 10 mg/pl.: (−)S9 mix

Row | Compound | Ames test (+)S9 0.1 mg/pl. | Ames test (+)S9 1 mg/pl. | Ames test (+)S9 10 mg/pl. | Ames test (−)S9 0.1 mg/pl. | Ames test (−)S9 1 mg/pl. | Ames test (−)S9 10 mg/pl.
1 | NNC(=O)c1nn(Cc2ccc(Cl)cc2Cl)c2cc(C(F)(F)F)cnc12 [JWS-1-232, 1-(2,4-dichlorobenzyl)-6-trifluoromethyl-1H-pyrazolo[4,3-b]pyridine-3-carboxylic acid hydrazide] | Pass | Pass | Pass | Pass | Pass | Pass
2 | O=C(O)c1nn(Cc2ccc(Cl)cc2Cl)c2cnccc12 [JWS-1-132, 1-(2,4-dichlorobenzyl)-1H-pyrazolo[3,4-c]pyridine-3-carboxylic acid] | Pass | Pass | Pass | Pass | Pass | Pass
3 | O=C(O)/C=C/c1nn(Cc2ccc(Cl)cc2Cl)c2ccc(C(F)(F)F)cc12 [JWS-1-268, 3-[1-(2,4-dichlorobenzyl)-5-trifluoromethyl-1H-indazol-3-yl]-acrylic acid] | Pass | Pass | Pass | Pass | Pass | Pass
4 | O=C(O)/C=C/c1nn(Cc2ccc(F)cc2F)c2ccc(C(F)(F)F)cc12 [JWS-2-10, 3-[1-(2,4-difluorobenzyl)-5-trifluoromethyl-1H-indazol-3-yl]-acrylic acid] | Pass | Pass | Pass | Pass | Pass | Pass
5 | O=C(O)/C=C/c1nn(Cc2ccc(Cl)cc2Cl)c2ncccc12 [RC-MC-65, 3-[1-(2,4-dichlorobenzyl)-1H-pyrazolo[3,4-b]pyridine-3-yl]-acrylic acid] | Pass | Fail | Fail | Pass | Fail | Fail
6 | NNC(=O)c1nn(Cc2ccc(Cl)cc2Cl)c2cc(Cl)ccc12 [DD-MC-II, 6-chloro-1-(2,4-dichlorobenzyl)-1H-indazole-3-carboxylic acid hydrazide] | Pass | Pass | Pass | Pass | Pass | Pass
7 | O=C(O)c1nn(Cc2ccc(F)cc2Cl)c2cc(Cl)ccc12 [JWS-2-20, 1-(2-chloro-4-fluorobenzyl)-6-chloro-1H-indazole-3-carboxylic acid] | Pass | Fail | Fail | Mar- | Fail | Fail
8 | NNC(=O)c1nn(Cc2ccc(Cl)cc2Cl)c2ccc(C(F)(F)F)cc12 [JWS-1-258, 1-(2,4-dichlorobenzyl)-5-trifluoromethyl-1H-indazole-3-carboxylic acid hydrazide] | Pass | Pass | Pass | Pass | Pass | Pass
9 | NNC(=O)/C=C/c1nn(Cc2ccc(Cl)cc2Cl)c2cc(C(F)(F)F)ccc12 [RC-MC-205, 3-[1-(2,4-dichlorobenzyl)-6-trifluoromethyl-1H-indazol-3-yl]-acrylic acid hydrazide] | Pass | Fail | Fail | Pass | Fail | Mar-
10 | COC(=O)c1nn(Cc2ccc(F)cc2Cl)c2cc(Cl)ccc12 [JWS-2-18, 1-(2-chloro-4-fluorobenzyl)-6-chloro-1H-indazole-3-carboxylic acid methyl ester] | Pass | Fail | Fail | Pass | Pass | Mar-
11 | NNC(=O)c1nn(Cc2ccc(F)cc2F)c2ccc(C(F)(F)F)cc12 [JWS-1-302, 1-(2,4-difluorobenzyl)-5-trifluoromethyl-1H-indazole-3-carboxylic acid hydrazide] | Pass | Pass | Fail | Pass | Pass | Pass
12 | COC(=O)c1nn(Cc2ccc(Cl)cc2Cl)c2cc(C(F)(F)F)cnc12 [JWS-1-228, 1-(2,4-dichlorobenzyl)-6-trifluoromethyl-1H-pyrazolo[4,3-b]pyridine-3-carboxylic acid methyl ester] | Pass | Pass | Pass | Pass | Pass | Pass
13 | O=C(O)/C=C/c1nn(Cc2ccc(F)cc2F)c2cc(Cl)ccc12 [JWS-1-298, 3-[1-(2,4-difluorobenzyl)-6-chloro-1H-indazol-3-yl]-acrylic acid] | Pass | Fail | Fail | Pass | Fail | Fail
14 | O=C(O)c1nn(Cc2ccc(Cl)cc2Cl)c2cc(C(F)(F)F)cnc12 [JWS-1-230, 1-(2,4-dichlorobenzyl)-6-trifluoromethyl-1H-pyrazolo[4,3-b]pyridine-3-carboxylic acid] | Pass | Pass | Pass | Pass | Pass | Pass
15 | NNC(=O)c1nn(Cc2ccc(Cl)cc2Cl)c2cccnc12 [JWS-1-112, 1-(2,4-dichlorobenzyl)-1H-pyrazolo[4,3-b]pyridine-3-carboxylic acid hydrazide] | Pass | Pass | Pass | Pass | Fail | Fail
16 | COC(=O)c1nn(Cc2ccc(F)cc2F)c2ccc(C(F)(F)F)cc12 [JWS-1-300, 1-(2,4-difluorobenzyl)-5-trifluoromethyl-1H-indazole-3-carboxylic acid methyl ester] | Pass | Fail | Fail | Pass | Fail | Fail
17 | COC(=O)C=Cc1nn(Cc2ccc(Cl)cc2Cl)c2cc(C(F)(F)F)ccc12 [RC-MC-200] | Pass | Fail | Fail | Pass | Pass | Pass
18 | O=C(O)/C=C/c1nn(Cc2ccc(F)cc2Cl)c2cc(Cl)ccc12 [JWS-2-36, 3-[1-(2-chloro, 4-fluorobenzyl)-6-chloro-1H-indazol-3-yl]-acrylic acid] | Pass | Pass | Pass | Pass | Fail | Pass
19 | O=C(O)c1nn(Cc2ccc(F)cc2F)c2cc(Cl)ccc12 [JWS-1-284, 1-(2,4-difluorobenzyl)-6-chloro-1H-indazole-3-carboxylic acid] | Pass | Fail | Fail | Pass | Fail | Fail
20 | O=C(O)/C=C/c1nn(Cc2ccc(F)cc2F)c2cc(C(F)(F)F)ccc12 [JWS-1-294, 3-[1-(2,4-difluorobenzyl)-6-trifluoromethyl-1H-indazol-3-yl]-acrylic acid] | Pass | Pass | Pass | Pass | Pass | Pass
21 | O=C(O)c1nn(Cc2ccc(F)cc2F)c2ccc(C(F)(F)F)cc12 [JWS-2-1, 1-(2,4-difluorobenzyl)-5-trifluoromethyl-1H-indazole-3-carboxylic acid] | Pass | Pass | Pass | Pass | Mar- | Fail
22 | O=C(O)/C=C/c1nn(Cc2ccc(F)cc2Cl)c2cc(C(F)(F)F)ccc12 [JWS-2-40, 3-[1-(2-chloro, 4-fluorobenzyl)-6-trifluoromethyl-1H-indazol-3-yl]-acrylic acid] | Pass | Pass | Pass | Pass | Pass | Mar-
23 | O=C(O)c1nn(Cc2ccc(F)cc2Cl)c2cc(C(F)(F)F)ccc12 [JWS-2-14, 1-(2-chloro-4-fluorobenzyl)-6-trifluoromethyl-1H-indazole-3-carboxylic acid] | Pass | Pass | Fail | Pass | Fail | Fail
24 | O=C(O)c1nn(Cc2ccc(Cl)cc2Cl)c2ccc(C(F)(F)F)cc12 [JWS-1-260, 1-(2,4-dichlorobenzyl)-5-trifluoromethyl-1H-indazole-3-carboxylic acid] | Pass | Pass | Pass | Pass | Pass | Pass

Source: patent US8362031B2, “Lonidamine analogues and treatment of polycystic kidney disease” (University of Kansas, priority 2004, dated 2013)
